Laboratory results reported in patent US20220296566A1, “COMBINATION PRODUCT CONTAINING LIMONOID COMPOUND AND ALPHA-GLUCOSIDASE INHIBITOR” (ZHEJIANG YANGSHENGTANG INSTITUTE OF NATURAL MEDICATION CO., …, priority 2019, published 2022).

What was measured:
[1] = tested on: db/db mice; assay: Blood glucose in mouse type II diabetes model, db/db mice (Example 2); assay type: in vivo; details: single agent 0.04 g/kg per day by gavage, two weeks, 1 h after last administration, mean ± SD
From the text: Effects of limonoid compound, acarbose or combination thereof on blood glucose and leptin in mouse type II diabetes model
In the present example, db/db mice (line name BKS.Cg-Dock7^m+/+Lepr^db/Nju) were used to perform hypoglycemic efficacy evaluation test of animals (blood glucose level and leptin). The limonoid compound was selected from obacunone, isoobacunoic acid and obacunone glycoside, and acarbose single administration group, obacunone single administration group, isoobacunoic acid single administration group, obacunone glycoside single administered group, and respective combination thereof with acarbose administration groups were set.
Conditions for experimental feeding: as type II diabetes model mice, 6-week-old SPF-grade db/db mice were purchased from the Nanjing Model Biology Institute, and subjected to experimental feeding after 7 days of preliminary feeding. It should be noted that the conditions for raising the mice were as follows: the temperature was 23±1° C., the humidity was 55±10%, the lights were turned on between 7 am and 7 pm (the lights were turned off at other time), and the mice were allowed to freely take in water and feed. […]

[2] = tested on: db/db mice; assay: Blood glucose in mouse type II diabetes model, db/db mice (Example 4); assay type: in vivo; details: single agent 0.2 g/kg per day by gavage, two weeks, 1 h after last administration, mean ± SD
From the text: Effects of limonoid compound, acarbose or combination thereof on blood glucose and insulin in mouse type II diabetes model
In the present embodiment, the limonoid compound was selected from nomilin, deacetylnomilin, nomilin acid, deacetylnomilin acid glycoside, and acarbose single administration group, nomilin single administration group, deacetylnomilin single administration group, nomilin acid single administered group, deacetylnomilin acid glycoside single administration group, and respective combination thereof with acarbose administration groups were set.
Conditions for experimental feeding: as type II diabetes model mice, 6-week-old SPF-grade db/db mice were purchased from the Nanjing Model Biology Institute, and subjected to experimental feeding after 7 days of preliminary feeding. […]
Gavage doses: nomilin at a dose of 0.2 g/kg was gavaged per day for the nomilin group, deacetylnomilin at a dose of 0.2 g/kg was gavaged per day for the deacetylnomilin group, nomilin acid at a dose of 0.2 g/kg was gavaged per day for the nomilin acid group, deacetylnomilin acid glycoside at a dose of 0.2 g/kg was gavaged per day for the deacetylnomilin acid glycoside group, acarbose at a dose of 0.2 g/kg was gavaged per day for the acarbose group, nomilin at a dose of 0.1 g/kg and acarbose at a dose of 0.1 g/kg were simultaneously gavaged per day for the nomilin combination group, nomilin acid at a dose of 0.1 g/kg and acarbose at a dose of 0.1 g/kg were simultaneously gavaged per day for the nomilin acid combination group, deacetylnomilin at a dose of 0.1 g/kg and acarbose at a dose of 0.1 g/kg were simultaneously gavaged per day for the deacetylnomilin combination group, deacetylnomilin acid glycoside at a dose of 0.1 g/kg and acarbose at a dose of 0.1 g/kg were simultaneously gavaged per day for the deacetylnomilin acid glycoside combination group, the gavage volume was 10 mL/kg, and the normal group and the model group were administrated with 10 mL/kg of distilled water. […] The data were expressed as mean and standard deviation. […]

C[C@H]1O[C@H](O[C@H]2[C@H](O)[C@@H](O)[C@@H](O[C@H]3[C@H](O)[C@@H](O)C(O)O[C@@H]3CO)O[C@@H]2CO)[C@H](O)[C@@H](O)[C@@H]1N[C@H]1C=C(CO)[C@@H](O)[C@H](O)[C@H]1O (some centres unmarked) [Acarbose, acarbose]
Blood glucose value [1]: 16.9 ± 4.0 mmol/L
Blood glucose value [2]: 13.6 ± 2.9 mmol/L
